For experiment [1], the target named is T1, TRKA (Homo sapiens, UniProt P04629).
T1 construct: purchased American Life Technologies PV3144
Nature of the experiment: Z'-LYTE kinase activity detection, TRKA. The format is biochemical.

The target of experiment [2] is T2, TRKB (Homo sapiens, UniProt Q16620).
T2 construct: purchased American Life Technologies PV3616
Nature of the experiment: Z'-LYTE kinase activity detection, TRKB. The format is biochemical.

Experiment [3] addresses T3, TRKC (Homo sapiens, UniProt Q16288).
T3 construct: purchased American Life Technologies PV3617
Nature of the experiment: Z'-LYTE kinase activity detection, TRKC. The format is biochemical.

In experiment [4] the target is T4, BaF3-ETV6-NTRK2 (Homo sapiens, UniProt Q16620).
T4 construct: fused on or other part: P41212 (Transcription factor ETV6)
T4 sequence (Q16620 538-822 limits assumed): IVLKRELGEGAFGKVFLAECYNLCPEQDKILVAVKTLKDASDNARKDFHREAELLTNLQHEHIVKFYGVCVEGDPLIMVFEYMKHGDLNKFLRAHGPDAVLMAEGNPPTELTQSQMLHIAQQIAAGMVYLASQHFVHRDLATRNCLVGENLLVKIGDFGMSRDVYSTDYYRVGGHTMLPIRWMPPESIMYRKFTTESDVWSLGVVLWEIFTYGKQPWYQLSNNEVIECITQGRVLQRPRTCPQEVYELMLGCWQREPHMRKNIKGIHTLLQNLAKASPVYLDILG
Nature of the experiment: Cell proliferation inhibition, Ba/F3-TRKs stable strain (CCK-8). It is filed as cell-based, mouse. Particulars: 72 hours, read-out: cell viability IC50 ETV6-NTRK2. An excerpt:
(§1) The BaF3 cells (mouse pre-B cells) used in this experiment were purchased from the Japanese Cell Bank. All of the monoclonal stable strains, BaF3-CD74-NTRK1, BaF3-ETV6-NTRK2 and BaF3-ETV6-NTRK3 were constructed by our laboratory, and were identified by experiments such as positive control, protein expression and gene sequencing.
(§2) The brief steps of stable strain construction were as follows: constructed pCDNA3.1(+) plasmid vector carrying genes such as CD74-NTRK1, ETV6-NTRK2, ETV6-NTRK3; the plasmid was electroporated into Ba/F3 cells using Amaxa® Cell Line Nucleofector® Kit V; 48 hours after electroporation, geneticin (G418) with a final concentration of 1000 μg/mL was added to screen for two weeks, and the interleukin 3 (IL3) was removed to continue screening to obtain polyclonal stable strains; and then single clones were selected by limiting dilution method; the stable strains were then identified by the positive drugs, Western Blot (WB), and gene sequencing; the correct monoclonal through identification can be used to study the cell proliferation inhibitory activity of the inhibitors.
(§3) Cell proliferation inhibitory activity study: The cells in logarithmic growth phase were seeded into 96-well plates at 8000-12000 cells/well, and the inhibitors at different concentrations of (0-10 μM) were added the next day, and the culture was continued for 72 hours; then 10 μL of Cell Counting Kit-8 Cell Counting Reagent (CCK-8 Reagent) was added to each well, and continued to incubate for 1-3 hours; then its absorbance at 450 nm and 650 nm were measured with a super microplate reader. The median inhibitory concentration (IC50) was calculated using medical graphing software (GraphPad Prism 8.0.0).

Experiment [5] addresses T5, BaF3-ETV6-NTRK3 (Homo sapiens, UniProt Q16288).
T5 construct: fused on or other part: P41212 (Transcription factor ETV6)
The experiment is described as above. It is filed as cell-based, mouse. The settings on record: 72 hours, read-out: cell viability IC50 ETV6-NTRK3.
Excerpt: as §1, §2, §3

The target of experiment [6] is T6, BaF3-CD74-NTRK1 (Homo sapiens, UniProt P04629).
T6 construct: fused on or other part: P04233 (HLA class II histocompatibility antigen gamma chain)
T6 sequence (P04629 510-796 limits assumed): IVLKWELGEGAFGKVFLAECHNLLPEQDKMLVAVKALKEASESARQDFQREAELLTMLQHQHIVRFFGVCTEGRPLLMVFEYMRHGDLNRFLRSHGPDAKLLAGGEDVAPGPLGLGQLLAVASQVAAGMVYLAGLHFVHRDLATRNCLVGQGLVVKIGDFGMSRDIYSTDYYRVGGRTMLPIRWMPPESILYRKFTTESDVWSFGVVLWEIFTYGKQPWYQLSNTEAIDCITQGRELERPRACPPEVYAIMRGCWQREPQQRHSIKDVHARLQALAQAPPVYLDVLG
Described as above. Particulars: 72 hours, read-out: cell viability IC50 CD74-NTRK1. It is filed as cell-based, mouse.
Excerpt: as §1, §2, §3

Bounds are passed on as bounds.

T3 sequence (Q16288 32-839): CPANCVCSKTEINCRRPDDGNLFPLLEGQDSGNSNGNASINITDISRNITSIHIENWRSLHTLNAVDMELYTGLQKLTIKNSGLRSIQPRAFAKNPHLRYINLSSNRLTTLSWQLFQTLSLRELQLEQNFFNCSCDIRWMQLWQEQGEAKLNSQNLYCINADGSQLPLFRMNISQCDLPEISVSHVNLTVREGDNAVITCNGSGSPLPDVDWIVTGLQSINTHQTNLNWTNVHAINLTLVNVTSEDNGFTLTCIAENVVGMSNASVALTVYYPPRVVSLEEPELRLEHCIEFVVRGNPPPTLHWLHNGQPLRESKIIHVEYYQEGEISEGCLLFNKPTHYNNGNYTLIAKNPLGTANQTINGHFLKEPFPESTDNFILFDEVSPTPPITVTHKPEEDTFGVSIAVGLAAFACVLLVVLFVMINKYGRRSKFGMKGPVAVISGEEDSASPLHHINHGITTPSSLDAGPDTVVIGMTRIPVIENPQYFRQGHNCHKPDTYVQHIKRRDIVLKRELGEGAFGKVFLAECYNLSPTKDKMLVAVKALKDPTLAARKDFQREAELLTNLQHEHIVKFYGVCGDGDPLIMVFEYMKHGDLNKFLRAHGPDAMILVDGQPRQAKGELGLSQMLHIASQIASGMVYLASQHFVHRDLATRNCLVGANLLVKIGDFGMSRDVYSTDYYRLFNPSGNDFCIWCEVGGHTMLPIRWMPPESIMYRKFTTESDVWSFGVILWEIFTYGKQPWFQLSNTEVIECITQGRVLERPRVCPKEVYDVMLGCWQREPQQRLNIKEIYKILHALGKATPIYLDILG
T1 sequence (P04629 33-796): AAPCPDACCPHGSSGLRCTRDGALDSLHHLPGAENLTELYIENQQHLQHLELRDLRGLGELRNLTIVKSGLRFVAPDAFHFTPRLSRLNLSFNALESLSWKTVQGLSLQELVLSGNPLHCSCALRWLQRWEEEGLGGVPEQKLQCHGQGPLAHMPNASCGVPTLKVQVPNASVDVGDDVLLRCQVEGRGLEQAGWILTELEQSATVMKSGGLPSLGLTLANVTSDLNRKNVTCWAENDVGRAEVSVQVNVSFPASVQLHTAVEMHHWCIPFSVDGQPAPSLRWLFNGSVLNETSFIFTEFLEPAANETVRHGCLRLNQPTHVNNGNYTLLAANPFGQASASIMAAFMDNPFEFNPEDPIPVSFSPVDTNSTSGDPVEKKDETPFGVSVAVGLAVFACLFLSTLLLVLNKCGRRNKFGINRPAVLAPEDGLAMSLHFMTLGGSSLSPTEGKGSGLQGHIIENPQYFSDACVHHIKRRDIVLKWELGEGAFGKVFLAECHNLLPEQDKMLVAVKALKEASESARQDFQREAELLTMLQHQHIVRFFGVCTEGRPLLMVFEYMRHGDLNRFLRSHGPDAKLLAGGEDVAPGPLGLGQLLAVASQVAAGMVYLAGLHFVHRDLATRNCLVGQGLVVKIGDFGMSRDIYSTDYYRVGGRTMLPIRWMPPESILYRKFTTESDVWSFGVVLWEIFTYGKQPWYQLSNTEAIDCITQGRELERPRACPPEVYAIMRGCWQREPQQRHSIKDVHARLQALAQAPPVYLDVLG
T2 sequence (Q16620 32-822): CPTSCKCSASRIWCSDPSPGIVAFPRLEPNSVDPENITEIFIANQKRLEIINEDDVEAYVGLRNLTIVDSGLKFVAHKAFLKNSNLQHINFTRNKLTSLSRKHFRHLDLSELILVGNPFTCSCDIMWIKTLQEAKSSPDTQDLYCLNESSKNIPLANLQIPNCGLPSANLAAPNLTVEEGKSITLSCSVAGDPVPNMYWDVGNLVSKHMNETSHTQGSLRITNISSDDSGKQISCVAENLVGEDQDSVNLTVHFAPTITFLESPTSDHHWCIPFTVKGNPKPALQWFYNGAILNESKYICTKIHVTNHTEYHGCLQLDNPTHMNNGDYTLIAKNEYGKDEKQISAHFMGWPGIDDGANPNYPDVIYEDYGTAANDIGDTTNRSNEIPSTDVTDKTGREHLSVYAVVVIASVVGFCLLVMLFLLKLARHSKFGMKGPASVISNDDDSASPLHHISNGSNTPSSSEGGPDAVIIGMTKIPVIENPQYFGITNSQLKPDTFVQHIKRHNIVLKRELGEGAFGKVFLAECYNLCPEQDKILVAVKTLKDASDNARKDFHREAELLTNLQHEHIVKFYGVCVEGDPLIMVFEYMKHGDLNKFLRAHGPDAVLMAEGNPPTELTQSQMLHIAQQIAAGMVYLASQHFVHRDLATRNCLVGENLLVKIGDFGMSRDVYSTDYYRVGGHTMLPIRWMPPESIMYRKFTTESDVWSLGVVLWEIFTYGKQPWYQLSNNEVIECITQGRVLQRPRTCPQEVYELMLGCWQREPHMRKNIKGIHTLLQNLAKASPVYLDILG
T5 sequence (Q16288 whole entry, the tested form may be a part): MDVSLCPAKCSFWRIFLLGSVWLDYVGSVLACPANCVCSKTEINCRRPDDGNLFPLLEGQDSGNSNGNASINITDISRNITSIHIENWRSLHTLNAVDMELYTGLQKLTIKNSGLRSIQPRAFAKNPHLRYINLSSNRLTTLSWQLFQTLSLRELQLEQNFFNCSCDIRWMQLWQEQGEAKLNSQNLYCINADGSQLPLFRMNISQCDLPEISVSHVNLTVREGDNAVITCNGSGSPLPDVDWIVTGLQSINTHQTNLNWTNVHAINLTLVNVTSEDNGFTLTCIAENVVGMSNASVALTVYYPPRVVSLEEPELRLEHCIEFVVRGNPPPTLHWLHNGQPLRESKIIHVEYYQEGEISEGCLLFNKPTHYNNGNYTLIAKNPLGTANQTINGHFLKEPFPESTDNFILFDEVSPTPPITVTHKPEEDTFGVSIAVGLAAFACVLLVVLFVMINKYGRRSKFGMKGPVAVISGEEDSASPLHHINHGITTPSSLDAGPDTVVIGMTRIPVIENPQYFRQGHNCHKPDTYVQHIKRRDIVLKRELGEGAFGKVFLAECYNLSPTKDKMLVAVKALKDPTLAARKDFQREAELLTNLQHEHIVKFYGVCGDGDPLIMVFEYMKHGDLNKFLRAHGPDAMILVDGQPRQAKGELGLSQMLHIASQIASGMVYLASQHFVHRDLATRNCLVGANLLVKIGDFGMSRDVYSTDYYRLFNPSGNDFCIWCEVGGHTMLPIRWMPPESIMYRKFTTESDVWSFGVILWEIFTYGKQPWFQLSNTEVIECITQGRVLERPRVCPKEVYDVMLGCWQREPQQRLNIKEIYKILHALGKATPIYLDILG

The IC50 is the concentration that inhibits the measured activity by half. As to `Cc1c(C#Cc2cnc3ccc(N4CC[C@H](O)C4)nn23)cccc1C(=O)Nc1cc(Cl)cc(C(F)(F)F)c1` [XS3-58, (S)—N-(3-CHLORO-5-(TRIFLUOROMETHYL)PHENYL)-3-((6-(3-HYDROXYPYRROLIDIN-1-YL)IMIDAZO[1,2-B]PYRIDAZIN-3-YL)ETHYNYL)-2-METHYLBENZAMIDE], the 50% inhibitory concentration (IC50) in experiment [1] fell in the range of 10 to 100 nM; in experiment [2], 10 to 100 nM; in experiment [3] it was 10 to 100 nM; in experiment [4], 100 to 1000 nM; in experiment [5] it was 10 to 100 nM; in experiment [6], 100 to 1000 nM.
As for `Cc1c(C#Cc2cnc3ccc(N4CCC(N(C)C)CC4)nn23)cccc1C(=O)Nc1cc(CN2CCN(C)CC2)cc(C(F)(F)F)c1` [XS3-67, 3-((6-(4-(DIMETHYLAMINO)PIPERIDIN-1-YL)IMIDAZO[1,2-B]PYRIDAZIN-3-YL)ETHYNYL)-2-METHYL-N-(3-((4-METHYLPIPERAZIN-1-YL)METHYL)-5-(TRIFLUOROMETHYL)PHENYL)BENZAMIDE], the IC50 is < 10 nM in experiment [1]; 10 to 100 nM in experiment [2]; < 10 nM in experiment [3]; 100 to 1000 nM in experiment [4]; 10 to 100 nM in experiment [5]; 100 to 1000 nM in experiment [6].
For the compound `Cc1cn(-c2cc(NC(=O)c3cccc(C#Cc4cnc5ccc(N6CCOCC6)nn45)c3C)cc(C(F)(F)F)c2)cn1` [XS3-91], the IC50 was < 10 nM in experiment [1]; < 10 nM in experiment [2]; < 10 nM in experiment [3]; 10 to 100 nM in experiment [4]; < 10 nM in experiment [5]; 10 to 100 nM in experiment [6].
Turning to `Cc1c(C#Cc2cnc3ccc(N4CCC(N5CCOCC5)CC4)nn23)cccc1C(=O)Nc1cc(Cl)cc(C(F)(F)F)c1` [XS3-130, N-(3-CHLORO-5-(TRIFLUOROMETHYL)PHENYL)-2-METHYL-3-((6-(4-MORPHOLINPIPERIDIN-1-YL)IMIDAZO[1,2-B]PYRIDAZIN-3-YL)ETHYNYL)BENZAMIDE], the concentration for half-maximal inhibition (IC50) in experiment [1] was 10 to 100 nM; in experiment [2], 10 to 100 nM; in experiment [3], < 10 nM; in experiment [4] it was 10 to 100 nM; in experiment [5] it was 10 to 100 nM; in experiment [6] it was 10 to 100 nM.
For `Cc1c(C#Cc2cnc3ccc(N4CCC(N)CC4)nn23)cccc1C(=O)Nc1cc(Cl)cc(C(F)(F)F)c1` [XS3-131, 3-((6-(4-AMINOPIPERIDIN-1-YL)IMIDAZO[1,2-B]PYRIDAZIN-3-YL)ETHYNYL)-N-(3-CHLORO-5-(TRIFLUOROMETHYL)PHENYL)-2-METHYLBENZAMIDE], the 50% inhibitory concentration (IC50) was in the range of 10 to 100 nM in experiment [1]; 10 to 100 nM in experiment [2]; 10 to 100 nM in experiment [3]; 100 to 1000 nM in experiment [4]; 10 to 100 nM in experiment [5]; 100 to 1000 nM in experiment [6].
Regarding `Cc1c(C#Cc2cnc3ccc(N(C)CCN(C)C)nn23)cccc1C(=O)Nc1cc(Cl)cc(C(F)(F)F)c1` [XS3-134, N-(3-CHLORO-5-(TRIFLUOROMETHYL)PHENYL)-3-((6-((2-(DIMETHYLAMINO)ETHYL)(METHYL)AMINO)IMIDAZO[1,2-B]PYRIDAZIN-3-YL)ETHYNYL)-2-METHYLBENZAMIDE], the IC50 in experiment [1] lay within 10 to 100 nM; in experiment [2] it was 10 to 100 nM; in experiment [3], 10 to 100 nM; in experiment [4], 100 to 1000 nM; in experiment [5], 10 to 100 nM; in experiment [6], 100 to 1000 nM.
Consider `COCCNc1ccc2ncc(C#Cc3cccc(C(=O)Nc4cc(Cl)cc(C(F)(F)F)c4)c3C)n2n1` [XS3-135, N-(3-CHLORO-5-(TRIFLUOROMETHYL)PHENYL)-3-((6-((2-METHOXYETHYL)AMINO)IMIDAZO[1,2-B] PYRIDAZIN-3-YL)ETHYNYL)-2-METHYLBENZAMIDE], for which the 50% inhibitory concentration (IC50) in experiment [1] was 10 to 100 nM; in experiment [2] it was 10 to 100 nM; in experiment [3], 10 to 100 nM; in experiment [4], 100 to 1000 nM; in experiment [5], 10 to 100 nM; in experiment [6], 100 to 1000 nM.
Consider `Cc1c(C#Cc2cnc3ccc(N4CCN(C5COC5)CC4)nn23)cccc1C(=O)Nc1cc(Cl)cc(C(F)(F)F)c1` [XS3-138, N-(3-CHLORO-5-(TRIFLUOROMETHYL)PHENYL)-2-METHYL-3-((6-(4-(OXETAN-3-YL)PIPERAZINE)-1-YL)IMIDAZO[1,2-B]PYRIDAZIN-3-YL)ETHYNYL)BENZAMIDE], for which the IC50 is 10 to 100 nM in experiment [1]; < 10 nM in experiment [2]; < 10 nM in experiment [3]; 10 to 100 nM in experiment [4]; < 10 nM in experiment [5]; 10 to 100 nM in experiment [6].
With `Cc1c(C#Cc2cnc3ccc(NCCCCO)nn23)cccc1C(=O)Nc1cc(Cl)cc(C(F)(F)F)c1` [XS3-139, N-(3-CHLORO-5-(TRIFLUOROMETHYL)PHENYL)-3-((6-((4-HYDROXYBUTYL)AMINO)IMIDAZO[1,2-B]PYRIDAZINE-3-YL)ETHYNYL)-2-METHYLBENZAMIDE], the IC50 in experiment [1], in experiment [2], in experiment [3], in experiment [4], in experiment [5] and in experiment [6] was 10 to 100 nM throughout.
`Cc1c(C#Cc2cnc3ccc(N4CCC(C)(O)CC4)nn23)cccc1C(=O)Nc1cc(Cl)cc(C(F)(F)F)c1` [XS3-153, N-(3-CHLORO-5-(TRIFLUOROMETHYL)PHENYL)-3-(6-(4-HYDROXY-4-METHYLPIPERIDIN-1-YL)IMIDAZO[1,2-B]PYRIDAZIN-3-YL)ETHYNYL)-2-METHYLBENZAMIDE]: the half-maximal inhibitory concentration (IC50) in experiment [1], in experiment [2], in experiment [3], in experiment [4], in experiment [5] and in experiment [6] was 10 to 100 nM each time.
As for `COc1cc(NC(=O)c2cccc(C#Cc3cnc4ccc(N5CCOCC5)nn34)c2C)cc(C(F)(F)F)c1` [XS4-72], the IC50 in experiment [1] was 10 to 100 nM; in experiment [2] it was 10 to 100 nM; in experiment [3] it was 10 to 100 nM; in experiment [4], 10 to 100 nM; in experiment [5] it was < 10 nM; in experiment [6] it was 10 to 100 nM.
For the compound `Cc1c(C#Cc2cnc3ccc(N4CCOCC4)nn23)cccc1C(=O)Nc1cc(C(F)(F)F)cc(C(F)(F)F)c1` [XS4-76], the 50% inhibitory concentration (IC50) in experiment [1], in experiment [2], in experiment [3], in experiment [4], in experiment [5] and in experiment [6] was 10 to 100 nM in each case.
For the compound `Cc1c(C#Cc2cnc3ccc(N4CCOCC4)nn23)cccc1C(=O)Nc1cc([N+](=O)[O-])cc(C(F)(F)F)c1` [XS4-77], the half-inhibitory concentration (IC50) in experiment [1] was 10 to 100 nM; in experiment [2], 10 to 100 nM; in experiment [3], 10 to 100 nM; in experiment [4] it was 10 to 100 nM; in experiment [5], < 10 nM; in experiment [6] it was 10 to 100 nM.
In the case of `Cc1c(C#Cc2cnc3cccnn23)cccc1C(=O)Nc1cc(CN2CCN(C)CC2)cc(C(F)(F)F)c1` [XS116], the half-inhibitory concentration (IC50) in experiment [1] was 10 to 100 nM; in experiment [2], 10 to 100 nM; in experiment [3] it was 10 to 100 nM; in experiment [4] it was 100 to 1000 nM; in experiment [5], 100 to 1000 nM; in experiment [6], 100 to 1000 nM.

The values above are taken from patent US11834454B2, “Alkynylphenylbenzamide compounds and applications thereof” (SHENZHEN NEWDEL BIOTECH CO., LTD., priority 2021, dated 2023).
